Measurements from patent US7550492B2, “Benzo[1,2,5]thiadiazole compounds” (Janssen Pharmaceutica N.V., priority 2003, dated 2009).

How the values were obtained:
CCK2 receptor [1] = target: T1, CCK2 receptor (Homo sapiens, UniProt P32239); assay: Binding Assay: competition with [125I]-BH-CCK-8S in HEKZFP cell membranes; settings: 60 min at 21±3° C., Cheng-Prusoff
T1 construct: Membranes were prepared from the HEKZFP cells after induction; endogenous in cells
T1 sequence (P32239 1-447): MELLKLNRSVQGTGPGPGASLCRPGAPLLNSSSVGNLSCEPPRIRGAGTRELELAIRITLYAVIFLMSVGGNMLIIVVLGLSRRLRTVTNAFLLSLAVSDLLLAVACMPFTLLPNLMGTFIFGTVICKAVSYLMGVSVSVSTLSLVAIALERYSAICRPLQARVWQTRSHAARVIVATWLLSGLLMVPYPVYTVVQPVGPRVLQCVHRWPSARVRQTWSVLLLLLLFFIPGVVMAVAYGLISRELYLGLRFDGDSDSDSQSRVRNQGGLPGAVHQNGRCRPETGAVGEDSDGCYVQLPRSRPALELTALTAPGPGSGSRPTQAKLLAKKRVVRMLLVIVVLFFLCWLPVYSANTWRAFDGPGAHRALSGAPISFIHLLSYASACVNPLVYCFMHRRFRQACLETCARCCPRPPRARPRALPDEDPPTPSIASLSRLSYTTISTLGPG
Description: Zinc Finger Proteins (ZFP) specific for the CCK2R gene were identified by Sangamo Biosciences. The ZFP domain was fused with the herpes simplex virus VP16 activation domain, and the fusion protein was subsequently cloned into the pcDNA3 mammalian expression vector (Invitrogen, San Diego, Calif.). Tet-inducible cell lines expressing the coding region from the ZFP vector were created using the T-REx-293™ cell line (Invitrogen). After 2 weeks of selection in culture medium containing […] Zeocin (Invitrogen), sixty drug-resistant stable clones were isolated and analyzed for ZFP expression as well as CCK2R induction upon addition of doxycycline to the culture medium. The cell line with the most appropriate CCK2R ZFP construct was used in all further assays and was termed the HEKZFP cell line.
HEKZFP cells were grown in DMEM supplemented with L-glutamine (2 mM), penicillin (50 units/mL) and streptomycin (50 μg/mL) and 10% FBS (v/v). HEKZFP cells were treated with […] doxycycline (Sigma-Aldrich, MO; USA) for 2 days to de-repress the tet-regulated expression of the CCK2 receptor selective zinc finger proteins and were harvested using a rubber cell scraper.
Membranes were prepared from the HEKZFP cells after induction. Frozen cell pellets (−40° C.) were thawed in 14 mL of buffer A (10 mM HEPES, 130 mM NaCl, 4.7 mM KCl, 5 mM MgCl, 1 mM EGTA and 15.4 mg/100 mL bacitracin at pH 7.2), adapted from E. A. Harper et al. (Br. J. Pharmacol. (1996) 118(7):1717-1726). The thawed pellets were homogenized using a Polytron PT-10 (7×1 s). The homogenates were centrifuged for 5 min at 1500 rpm (600×g), and the resulting pellets were discarded. The supernatants were re-centrifuged in order to collect the receptor-membrane pellets (25 min 15,000 rpm; 39,000×g), which were re-suspended in buffer A.
All assays were conducted in 96-well plate (GF/B millipore filter plates) using buffer A. For the optimal cell number determination experiments, cells in concentrations ranging from 2.5×10^5 to 12.5×10^5 cells/well were incubated with 20 pM [^125I]-BH-CCK-8S (50 μL 60 pM) solution) in a total volume of 150 μL. Total binding of [^125I]-BH-CCK-8S was determined in the presence of 15 μL of buffer A. Non-specific binding of [^125I]-BH-CCK-8S was determined in the presence of 15 μL of 10 μM YF476, a CCK-2 receptor selective antagonist that is structurally unrelated to the radioligand [^125I]-BH-CCK-8S. The assay preparation was incubated for 1 h at 21±3° C., and then the assay was terminated by rapid filtration of the preparation under reduced pressure. The loaded filters were washed three times using undiluted PBS (100 μL), and then 100 μL of scintillation fluid was added to the filter plate. Bound radioactivity was determined using a Topcount (Packard BioScience, Meriden, Conn.) with a count time of 1 min. From these experiments a cell concentration of 1 pellet in 15 mL of buffer was chosen for use in other assays. To validate the radioligand concentration and incubation time for the assay, saturation and kinetic binding studies were also conducted (see M. F. Morton, The Pharmacological Characterization of Cholecystokinin Receptors in the Human Gastrointestinal Tract. PhD Thesis, University of London, 2000). […] The assay was then terminated according to the procedure outlined above.
The pKi values were determined using the equation of Y.-C. Cheng and W. H. Prusoff (Biochem. Pharmacol., 1973, 22(23):3099-3108):
To circumvent problems associated with computer-assisted data analysis of compounds with low affinity, the data obtained in the current study were weighted according to a method described by Morton. In brief, 100% and 0% specific binding were defined independently using total binding and binding obtained in the presence of a high concentration of the reference antagonist, 2-NAP.

CCK2 receptor [2] = target: T2, CCK2 receptor (Cavia porcellus, UniProt H0VZC5); assay: Guinea-Pig Gastric Corpeal Muscle Assay (isolated muscle strip, pentagastrin-induced contraction); type: cell-based; settings: CCK1 receptors blocked
T2 construct: strips of muscle were dissected and suspended in isolated tissue organ baths; from tissue; host or cells: guinea-pig gastric corpeal muscle strips
T2 sequence (H0VZC5 1-426): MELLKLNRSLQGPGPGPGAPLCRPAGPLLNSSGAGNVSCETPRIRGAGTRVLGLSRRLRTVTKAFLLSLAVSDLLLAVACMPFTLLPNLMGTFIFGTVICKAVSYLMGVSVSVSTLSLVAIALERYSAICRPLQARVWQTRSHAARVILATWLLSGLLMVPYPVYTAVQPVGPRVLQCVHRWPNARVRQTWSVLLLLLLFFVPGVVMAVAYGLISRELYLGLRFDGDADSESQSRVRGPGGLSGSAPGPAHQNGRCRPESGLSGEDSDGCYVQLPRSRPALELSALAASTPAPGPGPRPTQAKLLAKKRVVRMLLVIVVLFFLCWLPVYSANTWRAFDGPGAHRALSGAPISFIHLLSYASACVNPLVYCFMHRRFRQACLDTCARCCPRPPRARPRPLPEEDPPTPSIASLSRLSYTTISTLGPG
Description: Guinea-Pig Gastric Corpeal Muscle Assay
CCK2 receptor-mediated muscle contraction was measured in an isolated muscle-strip assay of guinea-pig gastric corpeal muscle according to the methods described by Roberts et al. (S. P. Roberts, E. A. Harper, G. F. Watt, V. P. Gerskowitch, R. A. Hull, N. P. Shankley, and J. W. Black, Br. J. Pharmacol., 1996, 118(7):1779-1789). In brief, strips of muscle were dissected and suspended in isolated tissue organ baths for isotonic muscle contraction recording. The baths, containing Krebs-Henseleit solution, were maintained at 24° C. and gassed continuously with 95% O2 and 5% CO2. CCK1 receptors known to be present in this assay were blocked using a selective concentration of a suitable CCK1 receptor antagonist (e.g. 2-NAP). The effectiveness of the test compounds was assessed by measuring their effect on contractile concentration-response curves obtained using a well-characterized surrogate for the hormone gastrin (pentagastrin).

- pKi (CCK2 receptor [1]): 7.6
- pK8 value (CCK2 receptor [2]; antagonism of pentagastrin concentration-response curves, 24° C.): 8.8
- behaviour in the muscle contraction assay (CCK2 receptor [2]; pentagastrin concentration-response curves): competitive antagonist
SMILES: O=C(c1ccc(Br)cc1NS(=O)(=O)c1cccc2nsnc12)N1CCCCC1 [Example 5, Benzo[1,2,5]thiadiazole-4-sulfonic acid [5-bromo-2-(piperidine-1-carbonyl)-phenyl]-amide]
